In one data set the test system is male NMRI mice. The note with it: cited from earlier work.
In a further data set the test system is IgG titer. As to the kind of experiment: Serum IgG titer of SRBC-immunized mice. The format is in vivo, mouse. The conditions noted are these: 30 mg/kg i.p., untreated 4. On the procedure:
(§1) The plaque test of Jerne and Nordin (Science 140: 405-406, 1963) was used with the modification given by Cunningham and Szenberg (Immunolog. 14: 599-601; 1968). Briefly, 8 male NMRI mice per group (20-22 g) were immunized on day 0 by i.p. injection of 5×10^8 SRBC in 0.5 ml saline. Treatment with avarol was done i.p. either from day 0 to day +4 or from day -4 to day 0. One hour after the last drug administration, the animals were killed by a blow on the head and bled. The spleens were removed and a single cell suspension was prepared by teasing the pooled spleens through a 120-μm mesh sieve. After lysing the erythrocytes by 0.15M NH4 Cl, the cells were washed twice in Hank's balanced salt solution containing 29 ml of 7.5% NaHCO3 and 10 ml of 1M HEPES buffer solution per one liter. The cells were resuspended in 2 ml per spleen. Six Cunningham chambers per group were filled with a mixture of 0.5 ml of a suitable dilution of spleen cells (generally 1:100), 0.5 ml of a suspension of SRBC (10^9 /ml) and 125 μl of normal guinea pig complement. After 90-120 min of incubation at 37° C., the number of plaques was counted. Plaques per spleen or per 10^6 spleen cells were calculated.
The pooled blood of 8 mice was centrifuged to obtain the serum. IgM and IgG titers were measured with the mercaptoethanol method (Hudson, L. and Hay, F. C. Practical Immunology, Blackwell Sci., Oxford; 1983).

A short description of the next data set: Lethal dose in rats. The note with it: rat, in vivo; male Sprague-Dawley rats, treatment for 5 days; read-out: 50% lethal dose. On the procedure: From previous experiments with NMRI mice, bearing L5178y cells, it is known that the chemotherapeutical dose of avarol is in the range of 1-50 mg/kg at a 50% lethal dose of 269.1 mg/kg (Muller et al., Cancer Res. 45: 4822-4826; 1985). The 50% lethal dose (treatment for 5 days) for male Sprague-Dawley rats was determined to be 235.7 mg/kg. Therefore, daily doses of avarol of 1-30 mg/kg/injection were chosen for the following in vivo studies.

In the next data set the test system is lymphocyte cultures. The data set can be described thus: [^3 H]-dThd incorporation in lymphocyte cultures from avarol-pretreated mice. The format is cell-based, mouse. The note with it: pretreatment of mice; macrophage-containing and macrophage-depleted cultures. The source says:
The effect of avarol on the lymphoid system was studied both in vitro and in vivo. […] The stimulatory influence of avarol on humoral immune responses is not accompanied by a change of the antibody-mediated hypersensitivity reaction, as measured by the Arthus reaction. No significant influence of avarol on the cellular immune system in vivo (rats or mice) was found, as taken from studies on delayed-type hypersensitivity reactions to sheep red blood cells and to oxazolone.

The test system of data set [1] is L5178y mouse lymphoma cells. As to the kind of experiment: L5178y cell growth. The class given is cell-based. The note with it: 72 hours. On the procedure:
mouse lymphoma cells were grown in roller tube cultures in Eagle's minimum essential medium, supplemented with 10% horse serum (Muller et al., Cancer Res. 39: 1102-1107; 1979 and Muller et al. Cancer Res. 45: 4822-4826; 1985). […] The cell growth was determined by cell count with a computer supported cell-counter (128-channel counter; Cytocomp, system Michaelis: BIOTRON-Medizinelektronik, Mainz; West Germany). The ED50 (±SD) was estimated by logit regression (L. Sachs, […], Springer-Verlag, Berlin 1984). The mathematical evaluation of the fractional inhibitory concentration indices (FIC indices) of Avarol/Avarone-DDC combinations was performed according to published equations and experimental conditions (Muller et al., Cancer Lett. 1: 127-132; 1976; and Phillips et al., Antimicrob. Agents Chemother. 9: 736-740, 1976). […] In this set of experiments, […] cells were incubated with Avarol in the absence or presence of the established SODase inhibitor DDC.

The test system of data set [2] is plaque forming cells in the spleen of mice. The data set can be described thus: Jerne plaque test, plaque forming cells in spleen of SRBC-immunized mice. The note with it: for Plaque forming cells per 10^6 cells: 30 mg/kg i.p. The class given is in vivo, mouse. On the procedure: Concerning the functional consequences of the compound onto B-cells in vitro, I found (previous section) that both the IgG and the IgM secretion is stimulated in cultures of human lymphoid cells (unseparated) which are treated with non-cytostatic concentrations of avarol. This finding is supported by the results of the Jerne plaque test.
as §1

The subject of data set [3] is DTH to sheep red blood cells (SRBC) in NMRI mice. As to the kind of experiment: Delayed-type hypersensitivity to sheep red blood cells. The class given is in vivo, mouse. On the procedure:
DTH was produced according to the method of Lagrange et al. (J. Exp. Med. 139: 528-542; 1974) and Liew (Eur. J. Immunol. 7, 714-718; 1977). Male NMRI mice (20-23 g, 10 animals/group) were immunized with 10^8 SRBC/40 μl into one foot pad (day 0). Four days later 10^9 SRBC/40 μl were injected into the other foot pad. After 24 hours, paw size was measured with a dial gauge caliper Odi-Test OOT (H. C. Kroeplin, Schluchtern, Germany). Avarol (in 0.15% [w/v] methylcellulose) was administered daily i.p. either from day -2 to +1 or from day +2 to +4. The level of DTH was expressed as foot pad increase, determined after 24 hrs; and it is given in mm. Non-treated groups were injected i.p. with methylcellulose only. Treated groups were compared with the controls using the U-test of Wilcoxon et al. (Sachs, L. Angewandte Statistik, Springer-Verlag, Berlin; 1984).

Read-outs that look alike come from different tables or passages of the source.

As for `CC1=CCC[C@H]2[C@](C)(Cc3cc(O)ccc3O)[C@@H](C)CC[C@]12C` [Avarol, 2-[(1R)-1,2,3,4,4a,7,8,8aα-octahydro-1β,2β,4aβ,5-tetramethyl-1-naphthylmethyl]-1,4-benzenediol], the 50% lethal dose in the data set with male NMRI mice (NMRI mice, previous experiments) was 269.1 mg/kg. In the data set on male NMRI mice (male NMRI mice, acute), the “Acute toxicity LD10” value was 156.4 mg compound/kg. For the same compound, the “Subacute toxicity LD10” value in the data set on male NMRI mice (male NMRI mice, subacute) is given as 138.6 mg compound/kg. Also, in the data set on male NMRI mice (male NMRI mice, subacute), the “Subacute toxicity LD50” value is on record as 218.4 mg compound/kg. The “Titer IgG” value with IgG titer (from 0 to +4 days) is 2; with IgG titer (from -4 to 0 days), 4. Also, the LD50 at 120 h in the data set “Lethal dose in rats” turned out to be 236 mg/kg. Moreover, the “[^3 H]-dThd incorporation rate, in words” value in the data set with lymphocyte cultures is “higher [^3 H]-dThd incorporation rate”. The IC50 is 270 ± 40 nM in data set [1] (DDC 1.46 μM, read-out: ED50 with coaddition of DDC); 108 ± 15 nM in data set [1] (DDC 1.71 μM, read-out: ED50 with coaddition of DDC); 940 ± 140 nM in data set [1] (Mus musculus, L5178Y, cell growth, absence of DDC, read-out: ED50 (the source's name)). Also, the “Plaque forming cells per 10^6 cells” value in data set [2] (from 0 to +4 days, untreated 2,782) is recorded as 3,316; in data set [2] (from -4 to 0 days, untreated 2,259), 2,202. Besides, the “higher number of plaque forming cells/spleen” value in data set [2] (30 mg/kg, day 0 to day +4) amounted to 28%. Further, the “increase of plaque forming cells/spleen” value in data set [2] (30 mg/kg, day -4 to day 0) came out at 21%. Further, the “DTH to SRBC, immunosuppressive influence” value is on record as “weak but significant immunosuppressive effect” in data set [3] (day +2 to +4, doses higher than 10 mg/kg i.p.) and “no significant immunosuppressive influence” in data set [3] (day -2 to +1, up to daily doses of 30 mg/kg i.p.).

The values are drawn from US4939177A, “Use of avarol for the control of AIDS and ARC” (Merz + Co. GmbH & Co., priority 1986, dated 1990).
